Test results taken from patent publication US10421715B2, “Pleuromutilin derivative having 2-amino phenyl mercaptan side chain as well as preparation method and application thereof” (SOUTH CHINA AGRICULTURAL UNIVERSITY, priority 2016, dated 2019).
In brackets after ≈: the same amount, converted by molar mass. Where two headings read alike, the source gives them in different places.

Tests used:
Test in all cases: In-vitro bacteriostatic experiment, two-fold agar dilution MIC
Assay type in all cases: cell-based
E. Coli ATCC25922 = conditions: for MIC: Escherichia coli, read-out: MIC E. coli ATCC25922
Description: (§1) Minimum inhibitory concentrations (MIC) of a series of compounds obtained in the disclosure were measured by using a two-fold agar dilution method. An experimental control drug selected valnemulin, and valnemulin belongs to pleuromutilin antibiotics and is the most widely applied veterinary antibiotic in the pleuromutilin antibiotics at present. By using a multi-point inoculator, bacteria solution was inoculated into a culture dish containing drugs having different concentrations at a bacteria inoculating amount of 10^6 CFU/ml. A result was observed after incubation for 24 hours at 37° C., and the concentration of a compound in a culture dish without bacteria served as the minimum inhibitory concentration (MIC) of this compound.
(§2) Strains used in the experiment were E. Coli ATCC25922, Staphylococcus aureus ATCC29213, methicillin-resistant staphylococcus ATCC43300 and mycoplasma gallisepticum S6.
(§3) 25.6 mg of synthesized target compound was precisely weighed to be placed in 10 mL of volumetric flask and dissolved with a small amount of N,N-dimethylformamide and then a volume was metered with N,N-dimethylformamide to 10 mL, so as to prepare 2560 μg/mL stock solution. In addition, 25.6 mg of pleuromutilin, tiamulin, valnemulin and retapamulin were respectively and precisely weighed to be placed in 10 ml of volumetric flask, and a volume was metered with N,N-dimethylformamide to 10 mL, so as to prepare 2560 μg/mL control stock solution.
(§4) The control stock solution was diluted in a culture dish with a doubling dilution method, each culture dish contained 1 ml of medicine liquid, the medicine liquid is diluted to 20 ml with molten MH agar, so that final concentrations of subject compounds in a series of culture dishes were respectively 64, 32, 16, 8, 4, 2, 1, 0.5, 0.25, 0.125 and 0.0625 μg/ml.

[1] = tested on: methicillin-resistant staphylococcus ATCC43300; conditions: for MIC: read-out: MIC MRSA ATCC43300
Description: as §1, §2, §3, §4

[2] = tested on: mycoplasma gallisepticum S6; conditions: for MIC: Mycoplasmoides gallisepticum, read-out: MIC S6
Description: as §1, §2, §3, §4

[3] = tested on: Staphylococcus aureus ATCC29213; conditions: for MIC: Staphylococcus aureus, read-out: MIC S. aureus ATCC29213
Description: as §1, §2, §3, §4

[4] = agar dilution, 10^6 CFU/ml, 24 hours at 37° C.
[5] = mycoplasma gallisepticum S6, agar dilution, 10^6 CFU/ml, 24 hours at 37° C.
[6] = ATCC25922, agar dilution, 10^6 CFU/ml, 24 hours at 37° C.
[7] = ATCC29213, agar dilution, 10^6 CFU/ml, 24 hours at 37° C.

Row | SMILES | MIC E. coli ATCC25922 (E. Coli ATCC25922; [4]) | MIC MRSA ATCC43300 [1, 4] | MIC S6 [2, 5] | MIC S. aureus ATCC29213 [3, 4] | also measured
1 | C=C[C@]1(C)C[C@@H](OC(=O)CSc2ccccc2NC(=O)c2ccccc2C)[C@]2(C)[C@H](C)CC[C@]3(CCC(=O)[C@H]32)[C@@H](C)[C@@H]1O [Compound 1] | >64 µg/mL | 0.25 µg/mL (≈ 0.414 µM) | 0.125 µg/mL (≈ 0.207 µM) | 0.25 µg/mL (≈ 0.414 µM) | –
2 | C=CC1(C)CC(OC(=O)CSc2ccccc2NC(=O)c2cccc(C)c2)C2(C)C(C)CCC3(CCC(=O)C32)C(C)C1O (centres unmarked) [Compound 2, 22-O-[2-(3-methylbenzamnido)phenyl] thioacetyl valnemulin] | >64 µg/mL | 0.5 µg/mL (≈ 0.828 µM) | 0.25 µg/mL (≈ 0.414 µM) | 1 µg/mL (≈ 1.66 µM) | –
3 | C=CC1(C)CC(OC(=O)CSc2ccccc2NC(=O)c2ccc(C)cc2)C2(C)C(C)CCC3(CCC(=O)C32)C(C)C1O (centres unmarked) [Compound 3, 22-O-[2-(4-methylbenzamido)phenyl] thioacetyl valnemulin] | >64 µg/mL | 0.5 µg/mL (≈ 0.828 µM) | 0.25 µg/mL (≈ 0.414 µM) | 0.5 µg/mL (≈ 0.828 µM) | –
4 | C=CC1(C)CC(OC(=O)CSc2ccccc2NC(=O)c2ccccc2F)C2(C)C(C)CCC3(CCC(=O)C32)C(C)C1O (centres unmarked) [Compound 4] | >64 µg/mL | 0.5 µg/mL (≈ 0.823 µM) | 0.25 µg/mL (≈ 0.411 µM) | 0.5 µg/mL (≈ 0.823 µM) | –
5 | C=CC1(C)CC(OC(=O)CSc2ccccc2NC(=O)c2cccc(F)c2)C2(C)C(C)CCC3(CCC(=O)C32)C(C)C1O (centres unmarked) [Compound 5, 22-O-[2-(3-fluorobenzamido)phenyl] thioacetyl valnemulin] | >64 µg/mL | 0.125 µg/mL (≈ 0.206 µM) | 0.125 µg/mL (≈ 0.206 µM) | 0.125 µg/mL (≈ 0.206 µM) | –
6 | C=CC1(C)CC(OC(=O)CSc2ccccc2NC(=O)c2ccc(F)cc2)C2(C)C(C)CCC3(CCC(=O)C32)C(C)C1O (centres unmarked) [Compound 6, 22-O-[2-(4-fluorobenzamido)phenyl] thioacetyl valnemulin] | >64 µg/mL | 1 µg/mL (≈ 1.65 µM) | 0.5 µg/mL (≈ 0.823 µM) | 1 µg/mL (≈ 1.65 µM) | –
7 | C=C[C@]1(C)C[C@@H](OC(=O)CSc2ccccc2NC(=O)c2ccccc2Cl)[C@]2(C)[C@H](C)CC[C@]3(CCC(=O)[C@H]32)[C@@H](C)[C@@H]1O [Compound 7] | >64 µg/mL | 0.5 µg/mL (≈ 0.801 µM) | 0.25 µg/mL (≈ 0.4 µM) | 0.5 µg/mL (≈ 0.801 µM) | –
8 | C=CC1(C)CC(OC(=O)CSc2ccccc2NC(=O)c2cccc(Cl)c2)C2(C)C(C)CCC3(CCC(=O)C32)C(C)C1O (centres unmarked) [Compound 8, 22-O-[2-(3-chlorobenzamido)phenyl] thioacetyl valnemulin] | >64 µg/mL | 0.25 µg/mL (≈ 0.4 µM) | 0.125 µg/mL (≈ 0.2 µM) | 0.25 µg/mL (≈ 0.4 µM) | –
9 | C=C[C@]1(C)C[C@@H](OC(=O)CSc2ccccc2NC(=O)c2ccc(Cl)cc2)[C@]2(C)[C@H](C)CC[C@]3(CCC(=O)[C@H]32)[C@@H](C)[C@@H]1O [Compound 9] | >64 µg/mL | 0.5 µg/mL (≈ 0.801 µM) | 0.25 µg/mL (≈ 0.4 µM) | 0.5 µg/mL (≈ 0.801 µM) | –
10 | C=CC1(C)CC(OC(=O)CSc2ccccc2NC(=O)c2ccccc2OC)C2(C)C(C)CCC3(CCC(=O)C32)C(C)C1O (centres unmarked) [Compound 10, 22-O-[2-(2-methoxybenzamido)phenyl] thioacetyl valnemulin] | >64 µg/mL | 0.5 µg/mL (≈ 0.807 µM) | 0.25 µg/mL (≈ 0.403 µM) | 1 µg/mL (≈ 1.61 µM) | –
11 | C=CC1(C)CC(OC(=O)CSc2ccccc2NC(=O)c2cccc(OC)c2)C2(C)C(C)CCC3(CCC(=O)C32)C(C)C1O (centres unmarked) [Compound 11, 22-O-[2-(3-methoxybenzamido)phenyl] thioacetyl valnemulin] | >64 µg/mL | 1 µg/mL (≈ 1.61 µM) | 0.25 µg/mL (≈ 0.403 µM) | 1 µg/mL (≈ 1.61 µM) | –
12 | C=C[C@]1(C)C[C@@H](OC(=O)CSc2ccccc2NC(=O)c2ccc(OC)cc2)[C@]2(C)[C@H](C)CC[C@]3(CCC(=O)[C@H]32)[C@@H](C)[C@@H]1O [Compound 12] | >64 µg/mL | 1 µg/mL (≈ 1.61 µM) | 0.5 µg/mL (≈ 0.807 µM) | 1 µg/mL (≈ 1.61 µM) | –
13 | C=C[C@]1(C)C[C@@H](OC(=O)CSc2ccccc2N)[C@]2(C)[C@H](C)CC[C@]3(CCC(=O)[C@H]32)[C@@H](C)[C@@H]1O [Compound 13] | – | – | – | – | MIC (E. Coli ATCC25922; [6]): > 64 µg/mL; MIC [1, 4]: 0.0156 µg/mL (≈ 0.0321 µM); antibacterial activity on methicillin-resistant staphylococcus (in words) ([1]; comparison with control drugs): obviously superior to that of valnemulin and retapamulin; MIC [2, 5]: 0.0156 µg/mL (≈ 0.0321 µM); MIC [3, 7]: 0.0156 µg/mL (≈ 0.0321 µM); antibacterial activity on staphylococcus (in words) ([3]; comparison with control drugs): obviously superior to that of valnemulin and retapamulin
14 | C=C[C@]1(C)C[C@@H](OC(=O)CO)[C@]2(C)[C@H](C)CC[C@]3(CCC(=O)[C@H]32)[C@@H](C)[C@@H]1O [Pleuromutilin] | – | – | – | – | MIC (E. Coli ATCC25922; [6]): > 64 µg/mL; MIC [1, 4]: 0.5 µg/mL (≈ 1.32 µM); MIC [2, 5]: 0.0625 µg/mL (≈ 0.165 µM); MIC [3, 7]: 1 µg/mL (≈ 2.64 µM)
15 | C=C[C@]1(C)C[C@@H](OC(=O)CS[C@@H]2C[C@H]3CC[C@@H](C2)N3C)[C@]2(C)[C@H](C)CC[C@]3(CCC(=O)[C@H]32)[C@@H](C)[C@@H]1O [Retapamulin, reference compound] | – | – | – | – | MIC ([1]; 24 h): 0.0625 µg/mL (≈ 0.121 µM); MIC ([3]; ATCC29213, 24 h): 0.0625 µg/mL (≈ 0.121 µM)
16 | C=C[C@]1(C)C[C@@H](OC(=O)CSCCN(CC)CC)[C@]2(C)[C@H](C)CC[C@]3(CCC(=O)[C@H]32)[C@@H](C)[C@@H]1O [Tiamulin, reference compound] | – | – | – | – | MIC (E. Coli ATCC25922; [6]): > 64 µg/mL; MIC [1, 4]: 0.5 µg/mL (≈ 1.01 µM); MIC [2, 5]: 0.0156 µg/mL (≈ 0.0316 µM); MIC [3, 7]: 0.5 µg/mL (≈ 1.01 µM)
17 | C=C[C@]1(C)C[C@@H](OC(=O)CSC(C)(C)CNC(=O)[C@H](N)C(C)C)[C@]2(C)[C@H](C)CC[C@]3(CCC(=O)[C@H]32)[C@@H](C)[C@@H]1O [Valnemulin, reference compound] | – | – | – | – | MIC (E. Coli ATCC25922; ATCC25922, 24 h): 32 µg/mL (≈ 56.7 µM); MIC ([1]; 24 h): 0.0625 µg/mL (≈ 0.111 µM); MIC ([2]; S6, 24 h): 0.0039 µg/mL (≈ 0.0069 µM); MIC ([3]; ATCC29213, 24 h): 0.0625 µg/mL (≈ 0.111 µM)
